Test results taken from patent publication US4166125A, “2-Oxo-phenylbutanoic acid derivatives” (Grelan Pharmaceutical Co., Ltd., priority 1977, dated 1979).
One block for each compound: values may come before it.

Assays:
carrageenin edema = assay: Inhibitory effect on carrageenin edema (oral administration); format: in vivo, rat (Sprague-Dawley strain); conditions: for ED40: Rattus norvegicus, po, 3 h
Protocol: Inhibitory effect on carrageenin edema.
The experiment was carried out according to a method conforming to Van Arman, C. […] One hour after the administration of the test compound, 0.1 ml of 1% carrageenin solution in physiological saline was injected subcutaneously into the plantar sarface of the right hind paws of the rats. One hour after injection of carrageenin, the volume of the injected paws was measured hourly for 4 hours. Inhibition percent to carrageenin edema (%)* was calculated in comparison with the volume of paws of rats of a control group, to which only 0.3% CMC-Na solution was orally administered. [formula]

gastric mucosa [1] = assay: Effect on gastric mucosa (2) (oral administration); format: in vivo, rat (Sprague-Dawley strain); conditions: rats, 4 hours
Protocol: 4 Hours after the administration, the rat was sacrificed with ether, and its stomach was removed. The stomach was treated with 5% formalin for 3 minutes, and gastric mucosa was observed under a stereoscopic microscope. When gastric lesion in the mucosa was found, the number of the lesion in the mucosa was counted.

[2] = Stability on storage at 50° C. and humidity of 70% for 1 month; format: physicochemical; conditions: among the compounds (I)
Protocol: For example, when the compounds (I) are kept at temperature of 50° C., and humidity of 70% for 1 month, no substantial change with respect to their appearances and values of quantitative analysis was observed, and no decomposition product was detected by thin-layer chromatography. Thus compounds (I) are prepared for administration in the form of pharmaceutical compositions according to conventional methods in the field of the art, and it is possible to prepare a pharmaceutical composition which comprises a therapeutically effective amount of at least one compound of the general formula (I) as an active ingredient, i.e. anti-inflammatory composition, in solid administration form (e.g. tablets, granules, powders, capsules, suppository), and liquid administration form (e.g. suspension, emulsion). In that case, as carrier, vehicle, solvent or dispersant, there may be used any of those which are known in the field of art. There may be exemplified water, starch, lactose, crystalline cellulose, magnesium stearate, hydroxypropyl cellulose, mannitol, carboxymethyl cellulose, glycol, ethanol, corn oil, peanut oil, castor oil, cacao butter, isocacao, polyoxyethylene stearate. […]

[3] = test system: writhing syndrome due to acetic acid; assay: Analgesic activity, stretching method (oral administration); format: in vivo, mouse (ddY-strain)
Protocol: The experiment was carried out according to a method conforming to Koster R. et al [Federation Proceedings 18, 412, (1960)]. […] 30 Minutes after administration of the test compound, 0.6% acetic acid aqueous solution was injected intraperitoneally to the mice in an amount of 0.1 ml per 10 g of body weight of the mouse, and then frequency of writhing syndrome due to acetic acid was counted for 20 minutes. Inhibition percent to the writhing syndrome was calculated in comparison with frequency of writhing syndrome counted on mice of a control group, to which only 1% gum arabic solution was orally administered.

[4] = test system: febrile body temperature (Brewer's yeast); assay: Antipyretic activity (oral administration); format: in vivo, rat (Sprague-Dawley strain); conditions: 30 mg/Kg
Protocol: Antipyretic activity (oral administration)
According to a method conforming to Winter, C. A. et al [The Journal of Pharmacology and Experimental Therapeutics 133, 117, (1961)], 20% Brewer's yeast suspension in physiological saline was injected subcutaneously to 5 male rats in each group (Sprague-Dawley strain) weighing 200 to 250 g in an amount of 1.0 ml per 100 g of body weight of the rat. After fasting for 18 hours, each test compound suspended in 1% gum arabic solution was administered orally to the rats in an amount of 1.0 ml per 100 g of body weight. Then, the rectal temperature of the rats was taken.

gastric mucosa [5] = assay: Effect on gastric mucosa (1) (oral administration); format: in vivo, mouse (ddY-strain); parameters: unit not given here; conditions: mice, 4 hours
Protocol: 4 Hours after the administration, the mouse was sacrificed with ether, and its stomach was removed. The stomach was treated with 5% formalin for 3 minutes, and gastric mucosa was observed under a stereoscopic microscope. When gastric lesion in the mucosa was found, the length of each lesion was measured. Degree of gastric damage (i.e. GD50)* was calculated on the basis of the length of the lesion of each mouse.
Remark *: GD50 : The value corresponding to the relative frequency of 50% on the normal probability paper plotted the length of gastric lesions of each mouse.

adjuvant arthritis = assay: Inhibition to adjuvant arthritis (oral administration); format: in vivo, rat (Sprague-Dawley strain); conditions: for Increase in body weight / Weight of the organs: Adrenal glands / Weight of the organs: Spleen / Weight of the organs: Thymus: once a day for 7 days
Protocol: Inhibition to adjuvant arthritis.
According to a method conforming to Fujihira et al [Oyo Yakuri, 5, 169, (1971)], liquid paraffin suspension of Mycobacterium butiricum (hereinafter abbreviated as adjuvant) was injected subcutaneously to right hind paws of male rats (Spraque-Dawley strain) weighing 150 to 170 g in an amount of 0.3 mg/0.05 ml/rat. 14 Days after adjuvant injection, the rats, paws of which swelled to a similar degree, were selected and they were separated into groups. From the 15th day after adjuvant injection, each test compound suspended in 0.3% CMC-Na solution was orally administered once a day for 7 days to the 7 rats in each group in the dose shown in the following table 2.
The 16th, 19th and 22nd days after adjuvant injection the volume of left hand paws (i.e. paws not treated with the adjuvant) of the rats and their body weight were measured. Inhibition percent to the arthritis (edema) is calculated according to the same equation as that used in Experiment 1, and the value of ED40 is calculated on the basis of the inhibition percent. Then the rats were sacrificed with ether and the weight of their thymus, adrenal glands and spleen was determined.

[6] = test system: pain threshold of hind paws (Brewer's yeast); assay: Analgesic activity, Randall and Selitto method (oral administration); format: in vivo, rat (Sprague-Dawley strain); conditions: Rattus norvegicus; oral, Litchfield-Wilcoxon method, from increasing percent of pain threshold
Protocol: Randall and Selitto method
According to a method conforming to Randall, L. O. and Selitto, J. J. [Archives Internationales de Pharmacodynamie et de Therapie, 111, 409, (1957)], 0.1 ml of 10% Brewer's yeast suspension in physiological saline was injected subcutaneously into the plantar surface of the right hind paws of 5 male rats in each group (Sprague-Dawley strain) weighing 90 to 110 g. 2 Hours after administration of the yeast suspension, each test compound suspended in 0.3% CMC-Na solution was orally administered to the rats in an amount of 1.0 ml per 100 g of body weight of the rat. 30 Minutes, 60 minutes and 120 minutes after administration of the test compounds, threshold values of left and right hind paws of the rats were measured by an electric pressure device made by Daiwa Kinzoku Co., Ltd. (Japan). The change of threshold was obtained by comparing the pain threshold obtained in a group after the yeast injection with that obtained before the yeast injection, in the same group as above. Increasing percent of pain threshold of the test compound was calculated on the basis of the mean changes of threshold of the test group and of that of the control group. Rats of the control group were administered orally only 0.3% CMC-Na solution.
According to the Litchfield-Wilcoxon method [The Journal of Pharmacology and Experimental Therapeutics, 96, 96, (1949)], ED50 value was calculated as follows on the basis of the increasing percent of pain threshold;

[7] = 50 mg/Kg oral, 3 hour after administration
[8] = 100 mg/Kg oral, 3 hour after administration
[9] = 100 mg/Kg oral, 4 hour after administration

Mean number of gastric lesion (gastric mucosa [1]; 25 mg/Kg oral): 0
Mean number of gastric lesion (gastric mucosa [1]; 50 mg/Kg oral): 0
Mean number of gastric lesion (gastric mucosa [1]; 100 mg/Kg oral): 1.0
Stability (in words) [2]: more stable
SMILES: CC(C(=O)C(=O)O)c1ccc(N2Cc3ccccc3C2=O)cc1 (centres unmarked) [2-Oxo-3-[4-(1-oxo-2-isoindolinyl)phenyl]butanoic acid]
Inhibition to carrageenin edema (carrageenin edema; [7]): 22.5%
Inhibition to carrageenin edema (carrageenin edema; [8]): 53.2%

SMILES: CC(=O)Oc1ccccc1C(=O)O [Aspirin]
Inhibition to writhing syndrome ([3]; 100 mg/Kg oral): 0%
Inhibition to writhing syndrome ([3]; 200 mg/Kg oral): 43%
Inhibition to writhing syndrome ([3]; 400 mg/Kg oral): 70%
Drop of febrile body temperature [4]: 1 °C
Degree of gastric damage (GD50) (gastric mucosa [5]; 100 mg/Kg oral): 2.0
Degree of gastric damage (GD50) (gastric mucosa [5]; 200 mg/Kg oral): 16.1
Degree of gastric damage (GD50) (gastric mucosa [5]; 282 mg/Kg oral): 18.6
Degree of gastric damage (GD50) (gastric mucosa [5]; 400 mg/Kg oral): 31.2
Mean number of gastric lesion (gastric mucosa [1]; 12.5 mg/Kg oral): 1.0
Mean number of gastric lesion (gastric mucosa [1]; 25 mg/Kg oral): 1.0
Mean number of gastric lesion (gastric mucosa [1]; 50 mg/Kg oral): 5.4
Mean number of gastric lesion (gastric mucosa [1]; 100 mg/Kg oral): 15.0

SMILES: CC(C)Cc1ccc(C(C)C(=O)O)cc1 (centres unmarked) [Ibuprofen]
Inhibition to carrageenin edema (carrageenin edema; [7]): 19.2 ± 22.0%
Inhibition to carrageenin edema (carrageenin edema; 50 mg/Kg oral, 4 hour after administration): 23.5 ± 14.2%
Inhibition to carrageenin edema (carrageenin edema; [8]): 42.2 ± 0.3%
Inhibition to carrageenin edema (carrageenin edema; [9]): 33.7 ± 3.1%
Inhibition to carrageenin edema (carrageenin edema; 200 mg/Kg oral, 3 hour after administration): 43.9 ± 1.0%
Inhibition to carrageenin edema (carrageenin edema; 200 mg/Kg oral, 4 hour after administration): 37.1 ± 4.7%
ED40 (carrageenin edema): 90 mg/kg
Inhibition to adjuvant arthritis (adjuvant arthritis; 25 mg/Kg oral, 1st day): 25.6%
Inhibition to adjuvant arthritis (adjuvant arthritis; 25 mg/Kg oral, 4th day): 15.7%
Inhibition to adjuvant arthritis (adjuvant arthritis; 25 mg/Kg oral, 7th day): 32.0%
Increase in body weight (adjuvant arthritis; 25 mg/Kg oral): 26.7 g
Weight of the organs: Adrenal glands (adjuvant arthritis; 25 mg/Kg oral): 13.7 ± 0.9 mg/100g of body weight
Weight of the organs: Spleen (adjuvant arthritis; 25 mg/Kg oral): 420.5 ± 34.9 mg/100g of body weight
Weight of the organs: Thymus (adjuvant arthritis; 25 mg/Kg oral): 143.3 ± 8.9 mg/100g of body weight
Inhibition to adjuvant arthritis (adjuvant arthritis; 100 mg/Kg oral, 1st day): 28.1%
Inhibition to adjuvant arthritis (adjuvant arthritis; 100 mg/Kg oral, 4th day): 37.3%
Inhibition to adjuvant arthritis (adjuvant arthritis; 100 mg/Kg oral, 7th day): 53.4%
Increase in body weight (adjuvant arthritis; 100 mg/Kg oral): 16.0 g
Weight of the organs: Adrenal glands (adjuvant arthritis; 100 mg/Kg oral): 15.3 ± 1.7 mg/100g of body weight
Weight of the organs: Spleen (adjuvant arthritis; 100 mg/Kg oral): 438.0 ± 40.0 mg/100g of body weight
Weight of the organs: Thymus (adjuvant arthritis; 100 mg/Kg oral): 127.8 ± 20.7 mg/100g of body weight
ED50 [6]: 130 mg/kg

SMILES: CCCCC1C(=O)N(c2ccccc2)N(c2ccccc2)C1=O [Phenylbutazone]
Inhibition to carrageenin edema (carrageenin edema; 12.5 mg/Kg oral, 3 hour after administration): 12.0 ± 5.5%
Inhibition to carrageenin edema (carrageenin edema; 12.5 mg/Kg oral, 4 hour after administration): 19.9 ± 3.7%
Inhibition to carrageenin edema (carrageenin edema; 25 mg/Kg oral, 3 hour after administration): 9.6 ± 8.3%
Inhibition to carrageenin edema (carrageenin edema; 25 mg/Kg oral, 4 hour after administration): 14.3 ± 4.7%
Inhibition to carrageenin edema (carrageenin edema; [8]): 54.3 ± 2.0%
Inhibition to carrageenin edema (carrageenin edema; [9]): 50.7 ± 6.0%
ED40 (carrageenin edema): 62 mg/kg
Inhibition to adjuvant arthritis (adjuvant arthritis; 25 mg/Kg oral, 1st day): 32.2%
Inhibition to adjuvant arthritis (adjuvant arthritis; 25 mg/Kg oral, 4th day): 28.8%
Inhibition to adjuvant arthritis (adjuvant arthritis; 25 mg/Kg oral, 7th day): 38.3%
Increase in body weight (adjuvant arthritis; 25 mg/Kg oral): 30.9 g
Weight of the organs: Adrenal glands (adjuvant arthritis; 25 mg/Kg oral): 13.2 ± 1.9 mg/100g of body weight
Weight of the organs: Spleen (adjuvant arthritis; 25 mg/Kg oral): 441.7 ± 29.9 mg/100g of body weight
Weight of the organs: Thymus (adjuvant arthritis; 25 mg/Kg oral): 141.6 ± 12.5 mg/100g of body weight
Inhibition to adjuvant arthritis (adjuvant arthritis; 100 mg/Kg oral, 1st day): 34.3%
Inhibition to adjuvant arthritis (adjuvant arthritis; 100 mg/Kg oral, 4th day): 37.9%
Inhibition to adjuvant arthritis (adjuvant arthritis; 100 mg/Kg oral, 7th day): 51.6%
Increase in body weight (adjuvant arthritis; 100 mg/Kg oral): 31.4 g
Weight of the organs: Adrenal glands (adjuvant arthritis; 100 mg/Kg oral): 12.0 ± 1.0 mg/100g of body weight
Weight of the organs: Spleen (adjuvant arthritis; 100 mg/Kg oral): 444.0 ± 39.6 mg/100g of body weight
Weight of the organs: Thymus (adjuvant arthritis; 100 mg/Kg oral): 146.2 ± 14.8 mg/100g of body weight
ED50 [6]: 250 mg/kg
Inhibition to writhing syndrome ([3]; 100 mg/Kg oral): 10%
Inhibition to writhing syndrome ([3]; 200 mg/Kg oral): 15%
Inhibition to writhing syndrome ([3]; 400 mg/Kg oral): 61%
Degree of gastric damage (GD50) (gastric mucosa [5]; 100 mg/Kg oral): 5.2
Degree of gastric damage (GD50) (gastric mucosa [5]; 200 mg/Kg oral): 10.0
Degree of gastric damage (GD50) (gastric mucosa [5]; 282 mg/Kg oral): 13.0
Mean number of gastric lesion (gastric mucosa [1]; 50 mg/Kg oral): 0.2
Mean number of gastric lesion (gastric mucosa [1]; 100 mg/Kg oral): 4.2
Mean number of gastric lesion (gastric mucosa [1]; 200 mg/Kg oral): 9.6
